The CheMixHub viscosity set
Several values for one entry are separate records, joined by “and”; a condition that tells them apart may be missing. Equal entries are not always repeated. ± gives the uncertainty stated by the source.

Legend:
[1] = xn = mol fraction of the nth substance listed

CCOC(=O)CCl
viscosity
Details	303.15 K	308.15 K
101.3 kPa	1.013 ± 0.013 mPa·s and 1.013 ± 0.009 mPa·s	0.93 ± 0.012 mPa·s and 0.93 ± 0.009 mPa·s
101.33 kPa	1.007 ± 0.02 mPa·s and 1.007 ± 0.025 mPa·s	0.933 ± 0.017 mPa·s and 0.933 ± 0.022 mPa·s

CCOCCOCCOCC
viscosity [mPa·s]
Details	298.15 K	308.15 K	318.15 K
101 kPa	1.268 ± 0.011	–	–
101.33 kPa	1.268 ± 0.016	1.048 ± 0.014	0.881 ± 0.012

CCOS(=O)(=O)[O-].CC[N+](CC)=C(N(C)C)N(C)C
100 kPa
Details	viscosity
293.15 K	190.9 ± 17 mPa·s and 190.9 ± 9 mPa·s
298.15 K	139 ± 12 mPa·s and 139 ± 5 mPa·s
303.15 K	104.9 ± 8.7 mPa·s and 104.9 ± 2.8 mPa·s
308.15 K	80.44 ± 6.6 mPa·s and 80.44 ± 1.5 mPa·s
313.15 K	63.24 ± 5.1 mPa·s and 63.24 ± 0.74 mPa·s
318.15 K	50.27 ± 4 mPa·s and 50.27 ± 0.4 mPa·s
323.15 K	40.55 ± 3.3 mPa·s and 40.55 ± 0.4 mPa·s

CC[N+]1(C)CCCC1.COP(=O)([O-])OC
100 kPa
Details	viscosity [mPa·s]
293.15 K	227.7 ± 15
298.15 K	169.4 ± 11
303.15 K	123.5 ± 7.8
308.15 K	93.55 ± 5.8
313.15 K	72.82 ± 4.5
318.15 K	56.38 ± 3.4
323.15 K	45.1 ± 2.8

CNC=O
viscosity
Details	298.15 K	303 K	303.15 K	308.15 K	313.15 K	318.15 K	323.15 K
101 kPa	1.746 ± 0.028 mPa·s	1.475 ± 0.014 mPa·s	1.585 ± 0.074 mPa·s and 1.597 ± 0.015 mPa·s and 1.58 ± 0.025 mPa·s	1.462 ± 0.069 mPa·s and 1.473 ± 0.014 mPa·s and 1.434 ± 0.023 mPa·s	1.352 ± 0.065 mPa·s and 1.361 ± 0.013 mPa·s and 1.306 ± 0.021 mPa·s	1.255 ± 0.06 mPa·s and 1.263 ± 0.012 mPa·s and 1.191 ± 0.02 mPa·s	1.175 ± 0.011 mPa·s
101.3 kPa	1.695 ± 0.024 mPa·s	–	–	–	–	–	–
101.33 kPa	–	–	1.586 ± 0.015 mPa·s	1.463 ± 0.013 mPa·s	1.352 ± 0.013 mPa·s	1.256 ± 0.012 mPa·s	1.167 ± 0.011 mPa·s

COC(=O)c1ccccc1
viscosity
Details	293.15 K	298.15 K	303.15 K	308.15 K	313.15 K	318.15 K	323.15 K
100 kPa	–	–	–	1.517 ± 0.062 mPa·s	1.373 ± 0.056 mPa·s	–	–
101 kPa	–	1.823 ± 0.057 mPa·s and 1.825 ± 0.15 mPa·s	1.656 ± 0.14 mPa·s and 1.583 ± 0.018 mPa·s	1.501 ± 0.037 mPa·s and 1.504 ± 0.047 mPa·s	1.359 ± 0.014 mPa·s and 1.371 ± 0.034 mPa·s	1.282 ± 0.032 mPa·s and 1.27 ± 0.04 mPa·s	1.222 ± 0.03 mPa·s
101.3 kPa	–	1.918 ± 0.024 mPa·s	1.778 ± 0.022 mPa·s	1.663 ± 0.021 mPa·s	1.402 ± 0.018 mPa·s	–	–
101.33 kPa	1.879 ± 0.015 mPa·s and 2.036 ± 0.12 mPa·s	1.836 ± 0.11 mPa·s and 1.825 ± 0.023 mPa·s and 1.81 ± 0.022 mPa·s	1.523 ± 0.012 mPa·s and 1.656 ± 0.021 mPa·s and 1.638 ± 0.02 mPa·s	1.521 ± 0.092 mPa·s and 1.491 ± 0.018 mPa·s	1.238 ± 0.01 mPa·s and 1.398 ± 0.085 mPa·s and 1.365 ± 0.017 mPa·s	1.253 ± 0.016 mPa·s	1.016 ± 0.009 mPa·s

C[N+](C)(C)C.[OH-]
100 kPa
Details	viscosity [mPa·s]
298.15 K	2.77 ± 0.06
303.15 K	2.71 ± 0.06
308.15 K	2.62 ± 0.06
313.15 K	2.56 ± 0.05

C[N+](C)(C)CCO.O=C([O-])c1ccccn1
Details	viscosity [mPa·s]
300 K, 100 kPa	558.5 ± 54

C[N+]1(CC2CO2)CCCC1=O.[Cl-] (configuration not stated)
101 kPa
Details	viscosity
293.15 K	1.677 ± 0.039 mPa·s and 1.623 ± 0.038 mPa·s
298.15 K	1.537 ± 0.036 mPa·s and 1.489 ± 0.035 mPa·s
303.15 K	1.415 ± 0.033 mPa·s and 1.373 ± 0.032 mPa·s
308.15 K	1.309 ± 0.031 mPa·s and 1.27 ± 0.03 mPa·s
313.15 K	1.215 ± 0.029 mPa·s and 1.18 ± 0.028 mPa·s

O=C(OCc1ccccc1)c1ccccc1
Details	viscosity
298.15 K, 101 kPa	8.454 ± 0.23 mPa·s and 8.45 ± 0.23 mPa·s
313.15 K, 101.33 kPa	5.04 ± 0.05 mPa·s

[Cl-].[Cl-].[Cl-].[Cl-].[Ti+4]
101 kPa
Details	viscosity [mPa·s]
293.15 K	0.827 ± 0.014
313.15 K	0.702 ± 0.012

c1ccc2c(c1)CCCC2
viscosity
Details	293.15 K	298.15 K	303.15 K	308.15 K	313.15 K	318.15 K	323.15 K
100 kPa	2.195 ± 0.047 mPa·s and 2.2 ± 0.09 mPa·s	1.985 ± 0.042 mPa·s and 1.99 ± 0.08 mPa·s	1.807 ± 0.038 mPa·s and 1.81 ± 0.07 mPa·s	1.654 ± 0.035 mPa·s and 1.66 ± 0.07 mPa·s	1.521 ± 0.032 mPa·s and 1.52 ± 0.06 mPa·s	1.403 ± 0.03 mPa·s and 1.4 ± 0.06 mPa·s	1.301 ± 0.028 mPa·s and 1.3 ± 0.05 mPa·s
101 kPa	–	1.985 ± 0.026 mPa·s	–	–	–	–	–
101.33 kPa	–	1.968 ± 0.012 mPa·s	1.778 ± 0.011 mPa·s	1.612 ± 0.01 mPa·s	1.473 ± 0.009 mPa·s	–	–
102 kPa	2.25 ± 0.03 mPa·s	–	1.85 ± 0.02 mPa·s	–	–	–	–

CCOC(=O)CCl + c1ccccc1
viscosity [mPa·s], [1], 101.3 kPa
Details	x1 = 0.0985	x1 = 0.1983	x1 = 0.2974	x1 = 0.3925	x1 = 0.5049	x1 = 0.6023	x1 = 0.696	x1 = 0.7994	x1 = 0.8998
298.15 K	0.634 ± 0.006	0.659 ± 0.007	0.694 ± 0.007	0.734 ± 0.007	0.781 ± 0.007	0.834 ± 0.008	0.886 ± 0.008	0.949 ± 0.008	1.019 ± 0.009
303.15 K	0.592 ± 0.006	0.616 ± 0.006	0.649 ± 0.007	0.687 ± 0.007	0.731 ± 0.007	0.779 ± 0.007	0.825 ± 0.008	0.883 ± 0.008	0.948 ± 0.009
308.15 K	0.549 ± 0.006	0.574 ± 0.006	0.605 ± 0.006	0.64 ± 0.007	0.681 ± 0.007	0.723 ± 0.007	0.765 ± 0.007	0.82 ± 0.008	0.878 ± 0.008

COC(=O)c1ccccc1 + c1ccccc1
viscosity [mPa·s], [1], 101 kPa
Details	x1 = 0.0773	x1 = 0.1534	x1 = 0.2362	x1 = 0.3252	x1 = 0.4217	x1 = 0.5176	x1 = 0.6241	x1 = 0.7379	x1 = 0.8662
303.15 K	0.613 ± 0.011	0.675 ± 0.011	0.75 ± 0.01	0.835 ± 0.012	0.929 ± 0.012	1.043 ± 0.012	1.165 ± 0.013	1.305 ± 0.013	1.482 ± 0.014
313.15 K	0.543 ± 0.011	0.588 ± 0.011	0.645 ± 0.011	0.71 ± 0.01	0.784 ± 0.012	0.874 ± 0.012	0.985 ± 0.012	1.107 ± 0.013	1.245 ± 0.013
